Laboratory results: US20250276983A1, “COMPOUNDS AND METHODS FOR MODULATING HER2” (IAMBIC THERAPEUTICS, INC., priority 2022, published 2025)
Read-outs that look alike come from different tables or passages of the source.

Assays:
wtERBB2 = wtERBB2 (Homo sapiens (Human), UniProt P04626); assay: HotSpot radiometric kinase activity assay, wtERBB2; format: biochemical; settings: 30 nM wtERBB2, 10 μM 33P-ATP, 20 min preincubation, 2 hours, read-out: HER2 WT IC50
Description: (§1) The purpose of the wtERBB2, ERBB2-A775_G776insYVMA (ERBB2YVMA), wtEGFR biochemical assay was to evaluate the inhibition (% inhibition and IC50 values) of the small molecule inhibitors by using the “HotSpot” radiometric kinase activity assay. HotSpot assays monitor the […] of kinase substrate by the radioactive gamma phosphate of adenosine triphosphate (33P-ATP) during biochemical reactions. HotSpot assays was performed in steps upon completion of the kinase reaction: deposition of a reaction mixture aliquot onto P81 ion exchange paper, extensive washing of the aforementioned P81 paper using phosphoric acid to remove unbound radiolabeled 33P-ATP from the P81 paper, and finally visualization and quantification of the dried P81 paper utilizing a phosphoimager. […] Typical reaction solutions (10 μL final reaction volume) contained the following buffer conditions: 20 mM Hepes (pH 7.5), 10 mM MgCl2, 1 mM EGTA, 0.01% Brij35, 0.02 mg/mL BSA, 0.1 mM Na3VO4, 2 mM DTT, 1% DMSO. The assay was primed by preparing a fresh 0.2 mg/mL solution of pEY (Sigma Cat: P7244) substrate in the reaction buffer and supplementing that solution with […] of MnCl2 as substrate cofactor (Sigma Cat: M9522). The kinase of interest was then added to the solution at the appropriate concentration (30 nM wtERBB2 from, or 20 nM ERBB2YVMA, or 4 nM wtEGFR) and gently mixed prior to delivery of compound in 100% DMSO by acoustic dispensing (Beckman Echo550). Compound, Kinase, and substrate were allowed to incubate for 20 min at room temperature prior to the initiation of the reaction by addition of 33P-ATP (PerkinElmer Cat: NEG602, final conc 10 μM). […] IC50 determinations were made from a plot of kinase activity as a function of inhibitor concentration fit to the 4-parameter IC50 equation with the enzyme concentration held constant using GraphPad Prism (San Diego).

wtEGFR = wtEGFR (Homo sapiens (Human), UniProt P00533); assay: HotSpot radiometric kinase activity assay, wtEGFR; format: biochemical; settings: 4 nM wtEGFR, 10 μM 33P-ATP, 20 min preincubation, 2 hours, read-out: EGFR WT IC50
wtEGFR, sequence (P00533 25-1210): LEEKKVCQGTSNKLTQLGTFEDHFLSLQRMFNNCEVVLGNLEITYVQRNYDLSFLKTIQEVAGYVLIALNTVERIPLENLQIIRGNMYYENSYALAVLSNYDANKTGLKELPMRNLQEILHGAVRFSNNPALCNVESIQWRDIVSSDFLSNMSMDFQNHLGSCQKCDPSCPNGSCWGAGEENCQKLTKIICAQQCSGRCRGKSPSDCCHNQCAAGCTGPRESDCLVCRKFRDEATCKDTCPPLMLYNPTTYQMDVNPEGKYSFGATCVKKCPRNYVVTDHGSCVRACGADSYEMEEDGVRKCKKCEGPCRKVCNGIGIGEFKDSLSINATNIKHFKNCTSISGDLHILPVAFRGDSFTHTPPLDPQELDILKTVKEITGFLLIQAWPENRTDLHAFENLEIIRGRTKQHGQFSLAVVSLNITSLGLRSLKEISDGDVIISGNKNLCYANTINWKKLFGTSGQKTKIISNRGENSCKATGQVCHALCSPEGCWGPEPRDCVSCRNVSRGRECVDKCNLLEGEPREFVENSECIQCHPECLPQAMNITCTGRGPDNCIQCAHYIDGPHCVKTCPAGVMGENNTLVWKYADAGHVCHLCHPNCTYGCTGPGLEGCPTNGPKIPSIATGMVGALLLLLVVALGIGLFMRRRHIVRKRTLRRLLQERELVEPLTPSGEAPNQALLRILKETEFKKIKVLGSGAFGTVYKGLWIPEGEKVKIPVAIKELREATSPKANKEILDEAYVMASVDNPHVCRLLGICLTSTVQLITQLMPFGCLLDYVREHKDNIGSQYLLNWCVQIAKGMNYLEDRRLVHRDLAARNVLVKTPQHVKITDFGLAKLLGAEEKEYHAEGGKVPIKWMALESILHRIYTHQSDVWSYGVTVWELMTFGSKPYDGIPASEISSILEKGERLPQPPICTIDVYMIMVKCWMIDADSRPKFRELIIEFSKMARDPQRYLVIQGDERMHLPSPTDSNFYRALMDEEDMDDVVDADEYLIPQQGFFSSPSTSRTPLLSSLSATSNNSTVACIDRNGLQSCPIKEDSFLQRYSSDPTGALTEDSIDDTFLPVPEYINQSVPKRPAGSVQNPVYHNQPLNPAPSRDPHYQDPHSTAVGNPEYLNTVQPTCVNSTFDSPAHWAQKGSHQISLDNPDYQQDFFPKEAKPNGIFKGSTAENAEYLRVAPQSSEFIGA
Description: as §1

BaF3_HER2YVMA cells = assay: Cell growth inhibition assay, BaF3_HER2YVMA; format: cell-based; settings: 72 h, read-out: HER2-YVMA IC50 (nM), cell growth inhibition
BaF3_HER2WT cells = assay: Cell growth inhibition assay, BaF3_HER2WT; format: cell-based; settings: 72 h, 3 days treatment, CellTiterGlo 2.0, read-out: HER2 WT IC50 (nM), cell growth inhibition
BaF3_EGFRWT cells = assay: Cell growth inhibition assay, BaF3_EGFRWT; format: cell-based; settings: 72 h, 80 ng/mL recombinant human EGF, 3 days treatment, CellTiterGlo 2.0, read-out: EGFR WT IC50 (nM), cell growth inhibition
[1] = BaF3_HER2YVMA cells, 3 days treatment, CellTiterGlo 2.0

wtERBB2, sequence (P04626 23-1255): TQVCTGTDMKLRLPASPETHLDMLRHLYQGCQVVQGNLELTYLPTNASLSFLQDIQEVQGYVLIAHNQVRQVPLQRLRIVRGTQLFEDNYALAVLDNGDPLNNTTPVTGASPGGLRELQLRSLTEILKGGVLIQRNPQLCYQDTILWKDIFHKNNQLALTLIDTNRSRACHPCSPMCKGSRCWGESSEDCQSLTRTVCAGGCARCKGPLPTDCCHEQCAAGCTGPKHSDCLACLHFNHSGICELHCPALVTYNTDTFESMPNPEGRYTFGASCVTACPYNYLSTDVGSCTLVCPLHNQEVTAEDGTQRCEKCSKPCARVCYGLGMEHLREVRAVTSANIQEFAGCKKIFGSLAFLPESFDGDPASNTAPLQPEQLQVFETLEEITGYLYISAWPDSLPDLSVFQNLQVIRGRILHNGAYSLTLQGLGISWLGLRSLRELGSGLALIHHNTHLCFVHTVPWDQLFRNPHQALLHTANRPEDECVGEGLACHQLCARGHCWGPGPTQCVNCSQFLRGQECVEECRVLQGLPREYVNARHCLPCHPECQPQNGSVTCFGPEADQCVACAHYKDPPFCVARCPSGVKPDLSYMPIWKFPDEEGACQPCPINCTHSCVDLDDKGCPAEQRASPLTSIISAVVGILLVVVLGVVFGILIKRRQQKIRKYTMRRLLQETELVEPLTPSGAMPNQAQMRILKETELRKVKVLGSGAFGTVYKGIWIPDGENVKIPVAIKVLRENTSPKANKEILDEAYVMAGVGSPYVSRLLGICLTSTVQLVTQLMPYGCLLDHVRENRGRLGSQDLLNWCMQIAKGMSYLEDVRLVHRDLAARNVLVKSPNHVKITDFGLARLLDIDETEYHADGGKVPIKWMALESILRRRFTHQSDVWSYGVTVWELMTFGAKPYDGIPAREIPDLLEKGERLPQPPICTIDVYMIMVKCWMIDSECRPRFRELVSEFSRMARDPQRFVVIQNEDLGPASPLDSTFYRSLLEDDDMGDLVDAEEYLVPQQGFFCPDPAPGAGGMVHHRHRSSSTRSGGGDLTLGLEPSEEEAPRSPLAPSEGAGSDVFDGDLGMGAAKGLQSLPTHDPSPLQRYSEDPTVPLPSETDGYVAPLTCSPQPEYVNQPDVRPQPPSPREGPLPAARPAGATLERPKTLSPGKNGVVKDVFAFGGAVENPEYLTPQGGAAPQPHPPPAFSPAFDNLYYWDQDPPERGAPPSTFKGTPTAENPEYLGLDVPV

IC50 (wtERBB2) [µM]	IC50 (wtEGFR) [µM]	IC50 (BaF3_HER2WT cells) [nM]	IC50 (BaF3_EGFRWT cells) [nM]	IC50 (BaF3_HER2YVMA cells; [1]) [nM]	SMILES	IC50 (BaF3_HER2YVMA cells) [nM]
< 0.2	< 0.2	< 200	1500 to 5000	< 200	C=CC(=O)N1CCCC(c2ccn3ncnc(Nc4ccc(Oc5ccn6ncnc6c5)c(C)c4)c23)C1 (centres unmarked) [Example 12, 1-(3-(4-((4-([1,2,4]triazolo[1,5-a]pyridin-7-yloxy)-3-methylphenyl)amino)pyrrolo[2,1-f][1,2,4]triazin-5-yl)piperidin-1-yl)prop-2-en-1-one]	–
< 0.2	< 0.2	< 200	1500 to 5000	200 to 500	Cc1cc(Nc2ncnn3ccc(C4CCN(C(=O)/C=C/CN(C)C)C4)c23)ccc1Oc1ccn2ncnc2c1 (centres unmarked) [Example 98, (E)-1-(3-(4-((4-([1,2,4]triazolo[1,5-a]pyridin-7-yloxy)-3-methylphenyl)amino)-pyrrolo-[2,1-f][1,2,4]triazin-5-yl)pyrrolidin-1-yl)-4-(dimethylamino)but-2-en-1-one]	–
< 0.2	< 0.2	< 200	500 to 1500	< 200	C=CC(=O)N1CCCN(c2ccn3ncnc(Nc4ccc(Oc5ccn6ncnc6c5)c(C)c4)c23)CC1 [Example 8, 1-(4-(4-((4-([1,2,4]triazolo[1,5-a]pyridin-7-yloxy)-3-methylphenyl)amino)pyrrolo[2,1-f][1,2,4]triazin-5-yl)-1,4-diazepan-1-yl)prop-2-en-1-one]	–
< 0.2	< 0.2	< 200	1500 to 5000	< 200	C=CC(=O)N1CC(n2cc(-c3ccn4ncnc(Nc5ccc(Oc6ccn7ncnc7c6)c(C)c5)c34)cn2)C1 [Example 2, 1-(3-(4-(4-((4-([1,2,4]triazolo[1,5-a]pyridin-7-yloxy)-3-methylphenyl)amino)pyrrolo[2,1-f][1,2,4]triazin-5-yl)-1H-pyrazol-1-yl)azetidin-1-yl)prop-2-en-1-one]	–
< 0.2	< 0.2	–	–	–	C=CC(=O)N1CCC[C@H](c2ccn3ncnc(Nc4ccc(Oc5ccn6ncnc6c5)c(C)c4)c23)CC1 [Example 112, (S)-1-(4-(4-((4-([1,2,4]triazolo[1,5-a]pyridin-7-yloxy)-3-methylphenyl)amino)pyrrolo[2,1-f][1,2,4]triazin-5-yl)azepan-1-yl)prop-2-en-1-one]	–
< 0.2	< 0.2	< 200	1500 to 5000	< 200	Cc1cc(Nc2ncnn3ccc(C4CN(C(=O)/C=C/CN(C)C)C4)c23)ccc1Oc1ccn2ncnc2c1 [Example 1, (E)-1-(3-(4-((4-([1,2,4]triazolo[1,5-a]pyridin-7-yloxy)-3-methylphenyl)amino)pyrrolo[2,1-f][1,2,4]triazin-5-yl)azetidin-1-yl)-4-(dimethylamino)but-2-en-1-one]	–

Second part, the compound before the results:

SMILES	IC50 (wtERBB2) [µM]	IC50 (wtEGFR) [µM]	IC50 (BaF3_HER2WT cells) [nM]	IC50 (BaF3_EGFRWT cells) [nM]	IC50 (BaF3_HER2YVMA cells; [1]) [nM]	IC50 (BaF3_HER2YVMA cells) [nM]
Cc1cc(Nc2ncnn3ccc(C4CN(C(=O)/C=C/CN5CCCC5)C4)c23)ccc1Oc1ccn2ncnc2c1 [Example 97, (E)-1-(3-(4-((4-([1,2,4]triazolo[1,5-a]pyridin-7-yloxy)-3-methylphenyl)amino)pyrrolo[2,1-f][1,2,4]triazin-5-yl)azetidin-1-yl)-4-(pyrrolidin-1-yl)but-2-en-1-one]	< 0.2	< 0.2	< 200	1500 to 5000	–	< 200
C=CC(=O)N1CCN(c2ccn3ncnc(Nc4ccc(Oc5ccn6ncnc6c5)c(C)c4)c23)CC1 [Example 6, 1-(4-(4-((4-([1,2,4]triazolo[1,5-a]pyridin-7-yloxy)-3-methylphenyl)amino)pyrrolo[2,1-f][1,2,4]triazin-5-yl)piperazin-1-yl)prop-2-en-1-one]	< 0.2	< 0.2	< 200	500 to 1500	< 200	–
Cc1cc(Nc2ncnn3ccc(C4CN(C(=O)/C=C/CN5CCCCC5)C4)c23)ccc1Oc1ccn2ncnc2c1 [Example 94, (E)-1-(3-(4-((4-([1,2,4]triazolo[1,5-a]pyridin-7-yloxy)-3-methylphenyl)amino)pyrrolo[2,1-f][1,2,4]triazin-5-yl)azetidin-1-yl)-4-(piperidin-1-yl)but-2-en-1-one]	< 0.2	< 0.2	< 200	1500 to 5000	< 200	–
Cc1cc(Nc2ncnn3ccc(C4CN(C(=O)/C=C/CN(C)C)C4)c23)ccc1Oc1ccc2c(c1)ncn2C [Example 101, (E)-4-(dimethylamino)-1-(3-(4-((3-methyl-4-((1-methyl-1H-benzo[d]imidazol-5-yl)oxy)phenyl)amino)pyrrolo[2,1-f][1,2,4]triazin-5-yl)azetidin-1-yl)but-2-en-1-one]	< 0.2	< 0.2	< 200	1500 to 5000	< 200	–
C=CC(=O)N1CCC(c2ccn3ncnc(Nc4ccc(Oc5ccn6ncnc6c5)c(C)c4)c23)CC1 [Example 7, 1-(4-(4-((4-([1,2,4]triazolo[1,5-a]pyridin-7-yloxy)-3-methylphenyl)amino)pyrrolo[2,1-f][1,2,4]triazin-5-yl)piperidin-1-yl)prop-2-en-1-one]	< 0.2	< 0.2	< 200	200 to 500	< 200	–
C=CC(=O)N1CCC(c2ccn3ncnc(Nc4ccc(Oc5ccc6c(c5)ncn6C)c(C)c4)c23)CC1 [Example 113, 1-(4-(4-((3-methyl-4-((1-methyl-1H-benzo[d]imidazol-5-yl)oxy)phenyl)amino)pyrrolo[2,1-f][1,2,4]triazin-5-yl)piperidin-1-yl)prop-2-en-1-one]	< 0.2	< 0.2	< 200	500 to 1500	< 200	–
C=CC(=O)N1CC(c2ccn(-c3ccn4ncnc(Nc5ccc(Oc6ccn7ncnc7c6)c(C)c5)c34)n2)C1 [Example 10, 1-(3-(1-(4-((4-([1,2,4]triazolo[1,5-a]pyridin-7-yloxy)-3-methylphenyl)amino)pyrrolo[2,1-f][1,2,4]triazin-5-yl)-1H-pyrazol-3-yl)azetidin-1-yl)prop-2-en-1-one]	< 0.2	< 0.2	200 to 500	1500 to 5000	500 to 1500	–
